Each structure is given as a SMILES string. pIC50: −log10 of the molar value. Where only a bound is given, the exact number is not on record here.

In one assay the target is human P2X7 receptor (Homo sapiens, UniProt Q99572, R270H/Y155H). As to the kind of experiment: Evaluation of human P2X7 receptor inhibitory activity (Yo-Pro uptake, BzATP stimulation, FLIPR TETRA). In kind it is cell-based. The conditions noted are these: 1321N1 cells stably expressing human P2X7 receptor; BzATP stimulation, Yo-Pro uptake; read-out: IC50 (antagonistic activity for the human P2X7 receptor). An outline of the steps:
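Yo-Pro dye uptake triggered by BzATP was monitored by FLIPR in human P2X7-transfected 1321N1 cells (SNP variant) in HEPES-buffered HBSS, pH 7.4-7.5. Compound was dispensed 8 min post-stimulation, then signal read for 20 min; IC50 derived logistically from inhibition of the fluorescence range.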
A word on the pIC50: it is the IC50 on a negative log10 scale, so that one unit is a factor of ten. Take `Cc1c(Cl)cccc1Nc1nc(=O)ccn1CCc1ccccc1` [Compound I-0055]: the negative-log IC50 (pIC50) is 7.59. Consider `COc1cn(Cc2ccc(F)c(Cl)c2)c(Nc2cccc3[nH]c(=O)ccc23)nc1=O` [Compound I-0397], for which the pIC50 is 7.17. The same measure, in the same setting: the result for `COc1cn(Cc2ccccc2C(F)(F)F)c(Nc2cccc(Cl)c2C)nc1=O` [Compound I-0294] reads 6.60.

Take `Cc1cc(C)c(Nc2nc(=O)c(C(N)=O)cn2Cc2ccccc2)cc1C` [Compound I-0218]: the pIC50 is 7.72.

The same assay, now with this note: 1321N1 cells stably expressing human P2X7 receptor; BzATP stimulation, Yo-Pro uptake; read-out: IC50 (antagonistic activity for the human P2X7 receptor), class symbol.
With `COc1cn(Cc2ccc(F)c(Cl)c2)c(Nc2cc(C)cc3[nH]ccc23)nc1=O` [Compound I-0396], the negative-log IC50 (pIC50) is greater than 8.00. As for `COc1cn(Cc2cc(C)cc(F)c2)c(Nc2cccc(Cl)c2C)nc1=O` [Compound I-0450], the pIC50 was 7.00 to 8.00. Still for that read-out and setting: next, `COc1cn(Cc2ccccc2)c(Nc2cccc(Oc3ccccn3)c2C)nc1=O` [Compound I-0198]: 6.30 to 7.00. In the case of `COCCNC(=O)Cc1cn(Cc2ccccc2)c(Nc2cccc(Cl)c2C)nc1=O` [Compound I-0340], the pIC50 was 6.30 to 7.00.

Regarding `COc1cn(Cc2ccc(F)c(Cl)c2)c(Nc2cc(CO)c(C)cc2C)nc1=O` [Compound I-0247], the negative-log IC50 (pIC50) is greater than 8.00. As for `COc1cc(C)c(Nc2nc(=O)c(OC)cn2Cc2ccc(F)c(F)c2)cc1C` [Compound I-0283], the pIC50 was greater than 8.00. As to `COc1cn(Cc2ccccc2)c(Nc2cc(CO)ccc2C)nc1=O` [Compound I-0180], the pIC50 was 7.00 to 8.00.

Take `COc1cn(Cc2ccc(F)c(Cl)c2)c(Nc2cc(-c3nc4ncccc4o3)ccc2C)nc1=O` [Compound I-0417]: the negative logarithm of the IC50 (pIC50) is 6.30 to 7.00. For the compound `COc1cc(Nc2nc(=O)c(OC)cn2Cc2cccc(Cl)c2)c(C)cc1Cl` [Compound I-0534], the pIC50 is greater than 8.00. Consider `COc1cn(Cc2ccccc2COC(F)F)c(Nc2cccc(Cl)c2C)nc1=O` [Compound I-0475], for which the negative logarithm of the IC50 (pIC50) is greater than 8.00. Still for that read-out and setting: next, `COc1cn(Cc2ccc(F)c(Cl)c2)c(Nc2cc(N3CCCC3=O)ccc2C)nc1=O` [Compound I-0399]: greater than 8.00; `Cc1c(Cl)cccc1Nc1nc(=O)c(C(=O)O)cn1Cc1ccccc1` [Compound I-0018]: 6.30 to 7.00.

Regarding `COc1cn(Cc2ccccc2)c(Nc2cc(N3CCCS3(=O)=O)ccc2C)nc1=O` [Compound I-0070], the pIC50 is 7.00 to 8.00. Regarding `COc1cn(Cc2cccc(Cl)c2)c(Nc2cccc(N(C)C)c2C)nc1=O` [Compound I-0432], the negative-log IC50 (pIC50) was 7.00 to 8.00.

Regarding `COc1cn(Cc2cc(C)cc(F)c2)c(Nc2cccc(Cl)c2C)nc1=O` [Compound I-0466], the pIC50 was 7.00 to 8.00. In the case of `COc1cn(Cc2cccc(Cl)c2)c(Nc2cc(C)c(F)cc2C)nc1=O` [Compound I-0506], the pIC50 is greater than 8.00.

As to `COc1cn(Cc2cc(F)cc(F)c2)c(Nc2cccc3sccc23)nc1=O` [Compound I-0441], the negative-log IC50 (pIC50) is greater than 8.00. Consider `COc1ccc(Nc2nc(=O)c(OC)cn2Cc2cc(F)c(F)c(F)c2)c(C)c1` [Compound I-0581], for which the negative logarithm of the IC50 (pIC50) was greater than 8.00. The same measure, in the same setting: the result for `COc1cn(Cc2cc(F)cc(Cl)c2)c(Nc2cccc3[nH]c(C)cc23)nc1=O` [Compound I-0579] reads 7.00 to 8.00; that for `COc1cn(Cc2ccccc2)c(Nc2cc(C)ccc2C)nc1=O` [Compound I-0068], 7.00 to 8.00; that for `COc1cn(Cc2ccc(F)c(Cl)c2)c(Nc2cc(C)c(F)cc2C)nc1=O` [Compound I-0507], greater than 8.00. With `COc1cc(C)cc(Nc2nc(=O)c(OC)cn2Cc2ccc(F)c(Cl)c2)c1C` [Compound I-0424], the negative logarithm of the IC50 (pIC50) was greater than 8.00. With `COc1cn(Cc2ccccc2COC(F)F)c(Nc2cccc(Cl)c2C)nc1=O` [Compound I-0447], the negative logarithm of the IC50 (pIC50) is greater than 8.00. As to `COc1ccc(Nc2nc(=O)c(OC)cn2Cc2ccccc2)c(C)c1C` [Compound I-0499], the pIC50 was 7.00 to 8.00.

Take `COc1cn(Cc2ccccc2)c(Nc2cc(C)ccc2Cl)nc1=O` [Compound I-0146]: the pIC50 was 7.00 to 8.00. In the case of `COc1cn(Cc2ccccc2)c(Nc2cc(Cl)ccc2Cl)nc1=O` [Compound I-0080], the pIC50 is 6.30 to 7.00.

Staying with this assay, now noted: antagonistic activity for the human P2X7 receptor; read-out: IC50.
As to `COc1cn(Cc2ccccc2)c(Nc2ccc(OC(F)(F)F)cc2C)nc1=O` [Compound I-0628], the pIC50 is 6.30 to 7.00. Turning to `Cc1c(CO)cccc1Nc1nc(=O)c(F)cn1Cc1cc(F)c(F)c(F)c1` [Compound I-1177], the pIC50 was greater than 8.00. Regarding `COc1cn(Cc2cc(F)c(F)c(F)c2)c(Nc2cccc(SC)c2C)nc1=O` [Compound I-0704], the pIC50 is greater than 8.00. For the compound `Cc1nc2cc(Cl)c(Nc3nc(=O)c(F)cn3Cc3cc(F)c(F)c(F)c3)cc2o1` [Compound I-1078], the pIC50 is greater than 8.00. Still for that read-out and setting: next, `COc1cn(Cc2ccc(F)c(Cl)c2)c(Nc2cc(-c3cccnc3)ccc2C)nc1=O` [Compound I-0696]: greater than 8.00; `COc1cn(Cc2cc(F)c(F)c(F)c2)c(Nc2cc3sc(C)nc3cc2C)nc1=O` [Compound I-0697]: greater than 8.00. With `Cc1nc2cc(C)c(Nc3nc(=O)c(F)cn3Cc3cc(F)c(F)c(F)c3)cc2o1` [Compound I-1183], the pIC50 is greater than 8.00.

Consider `COCc1cccc(Nc2nc(=O)c(F)cn2Cc2cc(F)c(F)c(F)c2)c1C` [Compound I-1178], for which the pIC50 was greater than 8.00. The same measure, in the same setting: next, `COc1cn(Cc2ccccc2)c(Nc2cc(-c3cnccn3)ccc2C)nc1=O` [Compound I-0663]: 7.00 to 8.00. On the same count and under the same terms, next, `C#Cc1cc(Nc2nc(=O)c(OC)cn2Cc2cc(F)cc(F)c2)c(C)cc1F` [Compound I-0915]: 7.00 to 8.00; `Cc1cc(N(C)C)ccc1Nc1nc(=O)c(F)cn1Cc1cc(F)c(F)c(F)c1` [Compound I-1242]: greater than 8.00; `COc1cccc(Nc2nc(=O)c(OC)cn2Cc2ccc(F)cc2)c1C` [Compound I-0661]: greater than 8.00.

As to `COc1cn(Cc2cc(F)cc(F)c2)c(Nc2cc(OC(F)(F)F)ccc2C)nc1=O` [Compound I-0695], the pIC50 is 7.00 to 8.00. Regarding `CCOc1cc(Nc2nc(=O)c(F)cn2Cc2ccc(F)c(F)c2)c(C)cc1F` [Compound I-1033], the negative-log IC50 (pIC50) was greater than 8.00. On to `COc1cn(Cc2cc(F)c(F)c(F)c2)c(Nc2ccc(OC(F)(F)F)cc2C)nc1=O` [Compound I-0596], for which the pIC50 was 7.00 to 8.00. Still for that read-out and setting: next, `COCc1ccc(C)c(Nc2nc(=O)c(F)cn2Cc2ccc(F)c(F)c2)c1` [Compound I-1084]: greater than 8.00. For the compound `CCc1cc2c(cc1Nc1nc(=O)c(OC)cn1Cc1ccccc1)OCCO2` [Compound I-0796], the pIC50 was 7.00 to 8.00.

For the compound `Cc1ccc(C)c(Nc2nc(=O)c(F)cn2Cc2cc(F)c(F)c(F)c2)c1` [Compound I-1194], the pIC50 is greater than 8.00.

Take `COc1cn(Cc2cc(F)c(F)c(F)c2)c(Nc2cc3cc[nH]c3cc2C)nc1=O` [Compound I-0938]: the negative-log IC50 (pIC50) was greater than 8.00.

Regarding `O=c1nc(Nc2cccc3[nH]ccc23)n(Cc2cc(F)cc(F)c2)cc1F` [Compound I-1022], the negative-log IC50 (pIC50) is greater than 8.00. For the compound `O=c1nc(Nc2cccc3cnccc23)n(Cc2cc(F)c(F)c(F)c2)cc1F` [Compound I-1096], the pIC50 was 7.00 to 8.00.

On to `CCc1cc2c(cc1Nc1nc(=O)c(OC)cn1Cc1cc(F)cc(F)c1)OCO2` [Compound I-0743], for which the negative logarithm of the IC50 (pIC50) is 7.00 to 8.00. On the same count and under the same terms, the result for `COc1cn(Cc2cc(F)cc(Cl)c2)c(Nc2ccc(OC(F)(F)F)cc2C)nc1=O` [Compound I-0609] reads 6.30 to 7.00; that for `COc1cn(Cc2ccccc2)c(Nc2c(C)ccc(C)c2F)nc1=O` [Compound I-0926], 7.00 to 8.00; that for `COc1cc(Nc2nc(=O)c(F)cn2Cc2ccc(F)c(F)c2)c(C)cc1Cl` [Compound I-0993], greater than 8.00. Regarding `COc1ccc(Cl)c(Nc2nc(=O)c(OC)cn2Cc2cc(F)cc(F)c2)c1` [Compound I-0639], the pIC50 was 7.00 to 8.00.

`COc1ccc(Nc2nc(=O)cnn2Cc2cccc(F)c2)c(C)c1` [Compound I-1274]: the pIC50 was greater than 8.00.

Take `COc1cn(Cc2ccc(F)cc2)c(Nc2cc(Oc3ccccn3)ccc2C)nc1=O` [Compound I-0898]: the pIC50 was 7.00 to 8.00. As for `Cc1cc2c(cc1Nc1nc(=O)c(CCO)cn1Cc1cc(F)c(F)c(F)c1)COC2` [Compound I-1127], the pIC50 was 7.00 to 8.00.

On to `COc1cn(Cc2ccc(F)c(F)c2)c(Nc2cc(N3CCOCC3)ccc2C)nc1=O` [Compound I-0736], for which the pIC50 was 7.00 to 8.00. Turning to `COc1cn(Cc2cc(F)cc(Cl)c2)c(Nc2cc(-c3cccnc3)ccc2C)nc1=O` [Compound I-0765], the pIC50 was 7.00 to 8.00. On the same count and under the same terms, the result for `COc1cn(Cc2cc(F)cc(Cl)c2)c(Nc2cc(OC3CC3)ccc2C)nc1=O` [Compound I-0891] reads 7.00 to 8.00. Regarding `COc1cn(Cc2ccc(F)c(Cl)c2)c(Nc2cc(-c3cccn(C)c3=O)ccc2C)nc1=O` [Compound I-0588], the pIC50 was greater than 8.00. On the same count and under the same terms, next, `COc1cn(Cc2ccccc2)c(Nc2cccc(C)c2F)nc1=O` [Compound I-0761]: 6.30 to 7.00; `Cc1nc2cc(Cl)c(Nc3nc(=O)c(F)cn3Cc3cc(F)c(F)c(F)c3)cc2s1` [Compound I-1182]: greater than 8.00. Same read-out and setting: next, `COc1cn(Cc2cc(F)c(F)c(F)c2)c(Nc2ccc(Oc3ccnc(F)c3)cc2C)nc1=O` [Compound I-0933]: 6.30 to 7.00; `COc1ccc(Nc2nc(=O)c(C(N)=O)cn2Cc2cc(F)c(F)c(F)c2)c(C)c1` [Compound I-1100]: 7.00 to 8.00; `COc1cn(Cc2ccc(F)c(Cl)c2)c(Nc2cccc3c2ccc(=O)n3C)nc1=O` [Compound I-0881]: 6.30 to 7.00. On to `COc1cnc(Nc2cccc(Cl)c2C)n(Cc2cccc(Cl)c2)c1=O` [Compound I-0969], for which the pIC50 is 6.00 to 6.30. Consider `COc1cn(Cc2ccc(F)c(Cl)c2)c(Nc2cc(N3CCCC3)ccc2C)nc1=O` [Compound I-0884], for which the pIC50 was 7.00 to 8.00. Regarding `CCc1cc(F)c(OC)cc1Nc1nc(=O)c(OC)cn1Cc1cc(F)cc(Cl)c1` [Compound I-0816], the pIC50 is greater than 8.00.

Source of the values: patent US10774051B2, “6-membered heterocyclic derivatives and pharmaceutical composition comprising the same” (Shionogi & Co., Ltd., priority 2015, dated 2020).
